Assay results published in US5817669A, “Compounds, processes for the preparation thereof and anti-tumor agents” (Dainippon Pharmaceutical Co., Ltd., priority 1994, dated 1998).
In brackets after ≈: the same amount, converted by molar mass. Read-outs that look alike come from different tables or passages of the source.

Assays:
[1] = system: murine P388 lymphocytic leukemia cells; test: In vitro anti-tumor activity against murine P388 lymphocytic leukemia cells (MTT, 72 h); type: cell-based; details: Mus musculus, read-out: IC50 (50% proliferation inhibitory concentration)
Method: Test compounds were tested for anti-tumor activity according to MTT [3-(4,5-dimethylthiazol-2-yl)-2,5-diphenyltetrazolium bromide] method, using murine P388 lymphocytic leukemia cells. […] The culture medium was centrifuged (4° C., 2,000 rpm for 20 minutes), and thus, the supernatants were removed by suction. Then, 0.1 ml of dimethyl sulfoxide was put in each well to dissolve the formed formazan, and, subsequently, another 0.1 ml of dimethyl sulfoxide was added. The absorbance (OD) of each of the obtained solutions was measured by use of Multiskan Bichromatic (main wavelength 570 nm, sub-wavelength 690 nm). […] IC50 :μg/ml) were calculated by the least squares method.

[2] = system: KB human nasopharynx cancer; test: In vitro anti-tumor activity against KB human nasopharynx cancer (MTT); type: cell-based; details: 72 h
Method: (§1) A culture medium containing 500 to 2,000 human cancer cells was put in an amount of 0.1 ml in each well of 96-well plate, and the cells were cultured for 20 hours under a condition of 37° C. and 5% carbon dioxide gas in air. After the culturing, a solution of test compounds of predetermined concentration was added, and then, the cells were cultured for further 72 hours. After the culturing, an MTT (5 mg/ml) solution was added in an amount of 0.01 ml in the respective wells, and the cells were cultured for further 4 hours. The supernatants of the culture medium were removed by suction, and then, 0.1 ml of dimethyl sulfoxide was put in respective well to dissolve the formed formazan, and, moreover, 0.1 ml of dimethyl sulfoxide was added.

HMV2 human melanoma = test: In vitro anti-tumor activity against HMV-2 human melanoma (MTT); type: cell-based; details: HMV-2, 72 h
Method: as §1

[3] = system: AZ521 human stomach cancer; test: In vitro anti-tumor activity against AZ-521 human stomach cancer (MTT); type: cell-based; details: AZ-521, 72 h
Method: as §1

[4] = system: MKN45 human stomach cancer; test: In vitro anti-tumor activity against MKN45 human stomach cancer (MTT); type: cell-based
Method: as §1

[5] = system: WiDr human colorectal cancer; test: In vitro anti-tumor activity against WiDr human colorectal cancer (MTT); type: cell-based; details: 72 h
Method: as §1

C33A human cervix cancer = test: In vitro anti-tumor activity against C-33A human cervix cancer (MTT); type: cell-based; details: 72 h
Method: as §1

A427 human lung cancer = test: In vitro anti-tumor activity against A-427 human lung cancer (MTT); type: cell-based; details: A-427, 72 h
Method: as §1

[6] = system: murine P388 lymphocytic leukemia cells; test: Increases in life span of mice implanted with murine P388 lymphocytic leukemia cells; type: in vivo, SLC: BDF1 mice; details: Mus musculus, P388, ip, 720 h
Method: 1×10^6 murine P388 lymphocytic leukemia cells were intraperitoneally implanted in each of SLC: BDF1 mice (8 to 10 weeks old, female, 7 animals per one group). A test compound (drug) was either dissolved in 0.1 N--NaOH or suspended in 0.4% carboxymethylcellulose solution, and the resultant solution or suspension was diluted with distilled water or 0.4% carboxymethylcellulose solution so as to give predetermined concentrations for administration. The obtained solution was intraperitoneally (ip) administered twice, namely on the day following the implantation (1st day) and the 5th day, each 0.2 ml. The life and death of the mice were observed over a period of 30 days, and the median survival time (hereinafter referred to as MST) was determined for each group, and, thus, the increase in life span (ILS; %) was calculated according to the following equation:
ILS (%)=[{(MST of the test group)/(MST of the control group)}-1]×100
Drug effect was judged in the following manner, according to the criterion of U.S. National Cancer Institute (NCI):
ILS=75% or higher: ++ (remarkably effective);
20 to 74%: + (effective);
19% or lower: - (ineffective)

[7] = system: colon 26 murine tumor cells; test: Tumor growth inhibition effect on colon 26 murine tumor cells implanted mice; type: in vivo, SLC: CDF1 mice
Method: A 2% brei of colon 26 murine tumor cells was intracutaneously implanted each 0.1 ml in the abdominal part of SLC: CDF1 female mice (7 to 9 weeks old, 7 animals per one group). […] The obtained solutions were intraperitoneally (ip) administered each 0.2 ml once a day, from the day (1st day) following the implantation to the 9th day. On the 21st or 22nd day after the implantation, tumor weight was estimated from tumor diameters, and thus, the tumor growth inhibition rate (IR %) of the drug administered group in comparison with the control group was calculated according to the following equation. IR (%)=[1-{(MTW in the treated group)/(MTW in the control group)}]×10 0 MTW: mean tumor weight

Acute toxicity = details: mouse, in vivo, mice, 14th day
Method: Solutions of test compounds in predetermined concentrations were administered (0.1 ml/10 g body weight) to female BALB/c CrSlc mice (5 to 10 animals per one group, 10 weeks old) respectively, and, thus, LD50 values were calculated from the mortalities of the mice on the 14th day after the administration.

[8] = MKN-45, MKN45, 72 h, MTT, read-out: IC50
[9] = NCI criterion, ip, 25 mg/kg, read-out: Evaluation
[10] = ip, 12.5 mg/kg, days 1 and 5, in solution, read-out: ILS (%) (in solution)
[11] = ip, 25 mg/kg, days 1 and 5, in solution, read-out: ILS (%) (in solution)
[12] = Intravenous administration (iv)
[13] = read-out: ILS (%) (in solution)

For `C[C@H](N)C(=O)NC1CCN(c2ccc3c(=O)c(C(=O)O)cn(-c4nccs4)c3n2)C1.Cl` (stereo partly drawn) [Compound 3-1, 7-(3-L-alanylamino-1-pyrrolidinyl)-1,4-dihydro-4-oxo-1-(2-thiazolyl)-1,8-naphthyridine-3-carboxylic acid hydrochloride], the “solubility relative to that of Compound 1-1 and 3” value (Solubility; relative to Compound 1-1 and 3 (Z is hydrogen)) was ≥ 10 times and the solubility (Solubility; water) was 79.4 mg/mL.

For `CNC1(C)CCN(c2ccc3c(=O)c(C(=O)O)cn(-c4nccs4)c3n2)C1` (centres unmarked) [Compound 4], the IC50 ([1]; murine P388 cells, 72 h, MTT) was 0.0175 µg/mL (≈ 0.0454 µM), the IC50 ([2]; KB, MTT, read-out: IC50) was 0.172 µg/mL (≈ 0.446 µM) and the IC50 (HMV2 human melanoma; MTT, read-out: IC50) was 0.187 µg/mL (≈ 0.485 µM). It also gave an IC50 ([3]; MTT, read-out: IC50) of 0.1 µg/mL (≈ 0.259 µM), an IC50 [4, 8] of 0.199 µg/mL (≈ 0.516 µM) and an IC50 ([5]; MTT, read-out: IC50) of 0.392 µg/mL (≈ 1.02 µM). The IC50 (C33A human cervix cancer; C-33A, MTT, read-out: IC50) was 0.144 µg/mL (≈ 0.374 µM), the IC50 (A427 human lung cancer; MTT, read-out: IC50) was 0.194 µg/mL (≈ 0.503 µM) and the ILS at 3.13 mg/kg ([6]; NCI criterion, ip, 3.13 mg/kg, read-out: Evaluation) was 20 to 74%. For the same compound, the ILS at 6.25 mg/kg ([6]; NCI criterion, ip, 6.25 mg/kg, read-out: Evaluation) was > 75%, the ILS at 12.5 mg/kg ([6]; NCI criterion, ip, 12.5 mg/kg, read-out: Evaluation) was > 75% and the ILS at 25 mg/kg [6, 9] was > 75%. The ILS at 3.13 mg/kg ([6]; ip, 3.13 mg/kg, days 1 and 5, in solution, read-out: ILS (%) (in solution)) was 63%, the ILS at 3.13 mg/kg ([6]; ip, 3.13 mg/kg, days 1 and 5, in suspension, read-out: ILS (%) (in suspension)) was 63% and the ILS at 6.25 mg/kg ([6]; ip, 6.25 mg/kg, days 1 and 5, in solution, read-out: ILS (%) (in solution)) was 88%. The ILS at 12.5 mg/kg [6, 10] was 125%, the ILS at 12.5 mg/kg ([6]; ip, 12.5 mg/kg, days 1 and 5, in suspension, read-out: ILS (%) (in suspension)) was 125% and the ILS at 25 mg/kg [6, 11] was 150%. The inhibition in vivo at 1.56 mg/kg ([7]; Mus musculus, Colon 26, 504 h, ip, 1.56 mg/kg once a day, days 1-9, day 21 or 22, read-out: Tumor growth inhibition rate IR (%)) was 64%, the inhibition in vivo at 3.13 mg/kg ([7]; Mus musculus, Colon 26, 504 h, ip, 3.13 mg/kg once a day, days 1-9, day 21 or 22, read-out: Tumor growth inhibition rate IR (%)) was 89% and the LD50 at 336 h (Acute toxicity; [12]) was > 100 mg/kg.

`O=C(O)c1cn(-c2nccs2)c2nc(N3CCCC3)c(F)cc2c1=O` [Compound A, reference compound] gave an IC50 ([1]; murine P388 cells, 72 h, MTT) of 0.0942 µg/mL (≈ 0.261 µM), an IC50 ([2]; KB, MTT, read-out: IC50) of 1.94 µg/mL (≈ 5.38 µM) and an IC50 (HMV2 human melanoma; MTT, read-out: IC50) of 2.88 µg/mL (≈ 7.99 µM). The IC50 ([3]; MTT, read-out: IC50) was 0.797 µg/mL (≈ 2.21 µM), the IC50 [4, 8] was 1.27 µg/mL (≈ 3.52 µM) and the IC50 ([5]; MTT, read-out: IC50) was 4.09 µg/mL (≈ 11.3 µM). For the same compound, the IC50 (C33A human cervix cancer; C-33A, MTT, read-out: IC50) was 0.651 µg/mL (≈ 1.81 µM), the IC50 (A427 human lung cancer; MTT, read-out: IC50) was 0.854 µg/mL (≈ 2.37 µM) and the ILS at 25 mg/kg [6, 9] was 20 to 74%. The ILS at 50 mg/kg ([6]; NCI criterion, ip, read-out: Evaluation) was 20 to 74%, the ILS at 12.5 mg/kg [6, 10] was 0% and the ILS at 25 mg/kg [6, 11] was 25%. For the same compound, the ILS at 50 mg/kg ([6]; ip, days 1 and 5, in solution, read-out: ILS (%) (in solution)) was 38%, the inhibition in vivo at 12.5 mg/kg ([7]; Mus musculus, Colon 26, 504 h, ip, 12.5 mg/kg once a day, days 1-9, day 21 or 22, read-out: Tumor growth inhibition rate IR (%)) was 23% and the “tumor growth inhibition (IR), colon 26, in words” value ([7]; in words) was “apparently inferior to the compounds of this invention in view of both doses and inhibition rates”.

`COc1cc([C@@H]2c3cc4c(cc3[C@@H](O[C@@H]3O[C@@H]5CO[C@@H](C)O[C@H]5[C@H](O)[C@H]3O)[C@H]3COC(=O)[C@H]23)OCO4)cc(OC)c1O` [Compound H, Etoposide, reference compound] gave an IC50 ([1]; P388, 72 h) of 0.00849 µg/mL (≈ 0.0144 µM), an IC50 [2] of 0.201 µg/mL (≈ 0.342 µM) and an IC50 (HMV2 human melanoma) of 0.298 µg/mL (≈ 0.506 µM). The IC50 [3] was 0.08 µg/mL (≈ 0.136 µM), the IC50 ([4]; MKN-45, 72 h) was 0.49 µg/mL (≈ 0.833 µM) and the IC50 [5] was 1.63 µg/mL (≈ 2.77 µM). It also gave an IC50 (C33A human cervix cancer; C-33-A) of 0.084 µg/mL (≈ 0.143 µM), an IC50 (A427 human lung cancer) of 0.095 µg/mL (≈ 0.161 µM) and an ILS at 1.56 mg/kg ([6]; read-out: Evaluation) of 20 to 74%. The ILS at 3.13 mg/kg ([6]; read-out: Evaluation) was > 75%, the ILS at 6.25 mg/kg ([6]; read-out: Evaluation) was > 75% and the ILS at 12.5 mg/kg ([6]; read-out: Evaluation) was > 75%. The ILS at 25 mg/kg ([6]; read-out: Evaluation) was > 75%, the ILS at 1.56 mg/kg [6, 13] was 50% and the ILS at 3.13 mg/kg [6, 13] was 75%. The ILS at 6.25 mg/kg [6, 13] was 100%, the ILS at 12.5 mg/kg [6, 13] was 150% and the ILS at 25 mg/kg [6, 13] was > 275%. It also gave an inhibition in vivo at 12.5 mg/kg ([7]; Mus musculus, Colon 26, ip, 504 h, read-out: Tumor growth inhibition rate IR (%)) of 57%, an LD50 at 336 h (Acute toxicity; Intraperitoneal administration (ip)) of 71 mg/kg and an LD50 at 336 h (Acute toxicity; [12]) of 123 mg/kg.
